Measured values from patent publication US20110263862A1, “PIPERIDINE DERIVATIVE, PIPERAZINE DERIVATIVE AND AGENT FOR TREATMENT OF DISEASE INVOLVING CENTRAL NERVOUS SYSTEM DISORDERS” (M'S Science Corporation, priority 2008, published 2011).

Experiments:
[1] = molecular target: T1, sigma receptor (Cavia porcellus, UniProt Q60492); test: Evaluation of affinity to sigma receptors ([3H](+)-pentazocine receptor binding experiment); design: species or system guinea pig; conditions: membrane preparation from whole brain of guinea pigs, 25° C., 60 minutes, Dixon plot
T1 construct: A membrane preparation as a sigma receptor obtained from the whole brain of guinea pigs; from tissue; host or cells: guinea pig whole brain membrane preparation
T1 sequence (Q60492 whole entry): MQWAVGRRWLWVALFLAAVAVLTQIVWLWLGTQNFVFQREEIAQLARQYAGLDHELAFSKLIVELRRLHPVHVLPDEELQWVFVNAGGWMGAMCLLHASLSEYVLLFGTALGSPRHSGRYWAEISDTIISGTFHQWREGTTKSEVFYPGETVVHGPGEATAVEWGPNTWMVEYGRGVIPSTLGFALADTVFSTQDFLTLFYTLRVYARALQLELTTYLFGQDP
Description: A membrane preparation as a sigma receptor obtained from the whole brain of guinea pigs was used as an assay system; [^3H] (+)-pentazocine was used as a radioactive ligand; (+)-pentazocine was used as a positive substance; and 50 mM Tris hydrochloric acid buffer (pH 7.4) was used as a buffer.
The measurement of the following radioactivity was performed according to a common method after the binding reaction had been carried out at 25° C. for 60 minutes.
The inhibition rate was determined by the equation of “100−binding rate”. The binding rate is represented by the following equation:
The IC50 of the test substance was calculated from a regression equation to the dose-response curve. That is, the ratio y=(B−N)/(B0−N) wherein a value of (B−N) is a specific binding radioactivity in the presence of a test substance, and a value of (B0−N) is a specific binding radioactivity in the absence of a test substance was first subjected to logit conversion and applied to a logit-log model plotted against the common logarithm of the test substance concentration to create a dose-response curve. […] The regression equation to the dose-response curve used is as follows:
wherein Y=logity=ln(y/(1−y), X=log x, and a and b are each a constant, provided that x is a solute concentration of a test substance.
Then, for each concentration of the positive substance, the reaction rate was measured while changing the concentration of the test substance in a range including the IC50 to create the Dixon plot, and the Ki value was calculated from the test substance concentration giving an intersection of these straight lines.

[2] = test system: rat cerebral cortex neural cells; test: Evaluation of neurite outgrowth-promoting activity in central neural cells; format: cell-based; conditions: 48 hours after addition, longest neurite length 60 μm or more, mean±standard error, control 18.0 ± 1.6
Description: The neurite outgrowth-promoting effect of the rat cerebral cortex neural cells on test substances was evaluated using the following method. The cerebral cortex neural cells were isolated from Wistar rats on the 18th day of pregnancy according to the method of Springer Neuroscience Lab Manual. That is, under ether anesthesia, a fetal rat was removed from the uterus of a pregnant rat on day 18, and transferred into a petri dish containing HBSS (manufactured by Gibco, Inc.) on ice. The brain was subdivided into three pieces under a stereoscopic microscope to cut out the cerebral cortex. The cerebral cortex that had been cut out was dispersed with a neural cell dispersion solution (manufactured by Sumitomo Bakelite Co., Ltd.) to prepare rat cerebral cortex cells.
The resulting cerebral cortex cells were subjected to cell culture. Neurobasal medium (manufactured by Gibco, Inc.) supplemented with B27 Supplement (manufactured by Gibco, Inc.; Fin. 2% v/v), L-glutamine (manufactured by IBCO company; Fin. 0.5 mM) and GlutaMax I (manufactured by Gibco, Inc.; Fin. 0.5 mM) was used as the culture medium. The culture conditions were as follows: 5% CO2, 95% air, 100% humidity, and 37° C. The cells were inoculated to polylysine-coated 8-well slides (manufactured by IWAKI company) so as to have about 2×10^4 cells/well.
Compounds (1) to (6) were added as respective test substances (final concentrations: […] and 1.0 μM) to the culture solution at about 3 hours after the cell inoculation, and the culture solution with no additives was used as a control.
At 48 hours after the addition of the compounds, the cells were fixed at room temperature for about 30 minutes using 4% paraformaldehyde (manufactured by Wako Pure Chemical Industries), and incubated with an anti-α-Tublin antibody (Anti-α-Tubulin Alexa Fluor 488 conjugate) recognizing a microtubule protein, at room temperature for one hour. After washing, the nucleus of the whole cell was stained with a nucleic acid-staining agent DAPI. The cells were observed under a fluorescence microscope at a magnification of 20 times. The stained cell image and the nuclear staining image in the same field of vision were imported into a computer as the image. Using an image analysis software (MethaMorph (registered trademark), Molecular Devises), the image imported into the computer, was used to measure the “longest neurite length” that was the length of the longest neurite of individual cell in each field of vision. A cell having a length of the “longest neurite length” of 60 μm or more is defined as a “neurite forming cell” and the neurite forming activity was evaluated by the ratio of the “neurite forming cell” occupied in the number of the cells in the same field of vision. In other words, such evaluation was performed by determining the rate of the neurite forming cells using the following equation:
Rate of neurite forming cells=[Number of neurite forming cells/Number of total cells in the same field of vision]×100
Each numerical value represents mean±standard error.

SMILES	Ki [1]	Neurite outgrowth-promoting activity (rate of neurite forming cells) ([2]; 0.3 μM)	Neurite outgrowth-promoting activity (rate of neurite forming cells) ([2]; 1.0 μM)
c1ccc(CN2CCN(C3CCCCC3)CC2)cc1 [Compound (1), 1-benzyl-4-cyclohexylpiperazine]	6.5 nM	55.2 ± 1.5%	54.6 ± 1.5%
c1ccc(CCN2CCN(C3CCCCC3)CC2)cc1 [Compound (2), 1-(2-phenylethyl)-4-cyclohexylpiperazine]	6 nM	55.7 ± 2.4%	55.1 ± 2.3%
c1ccc(CCCN2CCN(C3CCCCC3)CC2)cc1 [Compound (3), 1-(3-phenylpropyl)-4-cyclohexylpiperazine]	6.1 nM	49.6 ± 2.7%	58.4 ± 2.8%
c1ccc(CC2CCN(C3CCCCC3)CC2)cc1 [Compound (4), 1-cyclohexyl-4-benzylpiperidine]	7 nM	50.7 ± 2.7%	51.1 ± 2.9%
c1ccc(CCC2CCN(C3CCCCC3)CC2)cc1 [Compound (5), 1-cyclohexyl-4-(2-phenylethyl)piperidine]	3.9 nM	51.2 ± 2.0%	48.9 ± 1.5%
c1ccc(CCCC2CCN(C3CCCCC3)CC2)cc1 [Compound (6), 1-cyclohexyl-4-(3-phenylpropyl)piperidine]	2.1 nM	54.2 ± 1.7%	46.0 ± 2.4%
COc1ccc(CCN2CCN(CCCc3ccccc3)CC2)cc1OC [Reference compound, reference compound]	–	44.6 ± 2.2%	58.4 ± 1.8%
